Results reported in patent US20250177448A1, “NEW USE OF PEG-PHOSPHOLIPID MOLECULES” (ICOAT MEDICAL AB, priority 2022, published 2025).

Tests used:
[1] = test system: porcine kidney transplant, ischemia reperfusion injury; assay: Porcine allogeneic survival transplantation model (SM); type: in vivo, pig; details: for IFNγ level / IL-1α level / IL-1β level / IL-2 level / IL-4 level / IL-6 level / IL-10 level / IL-12 level / IL-18 level: vs untreated control kidneys
Experimental: During and after surgery, systemic blood was collected for up to 4 days and analyzed for creatinine, sodium, potassium and phosphate (Section for Clinical Chemistry, Uppsala University Hospital).
Multiplex protein analyses using multiplex Luminex xMAP Technology (Millipore Corporation, Billerica, MA, USA) were performed using a porcine specific kit for 12 cytokines/chemokines: Interferon-gamma (INFγ), Interleukins IL-1b, IL-2, IL-1a, IL-1RA, IL-4, IL-6, IL-10, IL-18, IL-8, IL-12, and TNF. Plasma was incubated with agent-specific-coloured magnetic beads, thereafter with detection antibodies and streptavidin-phycoerythrin (Millipore Corporation). Plates were measured using a MAGPIX instrument (Luminex Corporation, Austin, TX, USA). Raw data [median fluorescence intensity (MFI)] was translated into protein concentration (ng/ml) using a standard curve.
These studies were approved by the Ethics Committee for Animal Experimentation, Uppsala, Sweden, Dnr C123/14. For each of these studies (SM and CLSM) five donor pigs and 10 recipient pigs of both sexes were used. All pigs were certified SPF pigs (Yorkshire×Hampshire) and bred at Lövsta University herd, SLU, Sweden. At arrival to SLU the pigs were 8 weeks old.
For the SM study, the pigs were selected after typing for Swine Leucocyte Antigen (SLA) class 1 in the following manner: the donor pigs were obtained from two litters and not related to any of the recipients. The recipient pigs were siblings, matched in pairs according to SLA class 1 (see below). For the CLSM study, all recipient pigs were siblings and not related to the donors, but these the pigs were not SLA-typed.
SM study: the kidneys were retrieved en bloc using the same procedure as in the ANSM study. Also here, the kidneys were exposed to an initial warm ischemia of less than 5 minutes. […] Post preservation, the kidneys were randomized to receive either PEG-phospholipid (15 mL, 2 mg/mL) or HTK solution at +4° C. by injection through the renal artery after clamping of the renal vein. During a 40-60 min incubation, the renal artery and vein were maintained clamped. The SM study comprised 6 kidneys treated with PEG-phospholipid and 4 control kidneys.
The recipient pigs underwent allogeneic single kidney transplantation. Through a 15-20 cm abdominal midline incision, the iliac vessels in the right iliac fossa were identified and carefully mobilized. The distal segment of the vena cava as well as the iliac artery (from its emergence from the aorta) were mobilized, sealing the surrounding lymphoid tissue. The renal graft was thereafter placed in the right iliac fossa in the proximity of the iliac vessels. The renal vein and artery were trimmed, and subsequently anastomosed in an end-to-side fashion to the recipient's right iliac artery and distal vena cava using a polypropylene 7/0 running suture (PROLENE®, Ethicon, US). The ureters were implanted by extravesical ureteroneocystostomy to the top of the bladder by 6-0 polydioxanone suture (PDS®, Ethicon, US). Thereafter, bilateral nephrectomy of the native kidneys was performed. The midline incision was closed by running a 2/0 polyglactin (VICRYL®, Ethicon, US) fascia suture and skin clips. No anticoagulants were given to the recipient. After the inguinal transplantation was completed, urine was collected directly from the bladder by cystocentesis, showing that all of the transplanted kidneys had started to produce urine soon after reperfusion. By using a urine stick the sample was analyzed for proteinurea and hematuria. The mean duration of the surgery was 2.5 hours (1.75-3.25 hours).
During and after transplantation, EDTA blood was collected from the local renal vein at 0, 15, 30 and 60 min after reperfusion, and systemic blood samples were obtained at 1, 2, 3, and 4 days after surgery. […]

red blood cells = assay: Cell lysis of red blood cells caused by PEG-phospholipid coating; type: cell-based; details: at the levels able to efficiently mask surface antigens on red blood cells
Experimental: In order to investigate if the PEG-phospholipid was able to protect against complement mediated lysis, RBCs were used from 13 different donors who were typed for Rh complex and ABO antigens. RBCs were isolated and preincubated with PEG-phospholipid at varying concentrations, free PEG or PBS as described above. Cells were then washed (and the supernatant stored for analysis) with PBS (800 g×5 min, RT) and incubated with human serum (where the complement system is active) for 20 minutes at 37° C. They were then spun down again (800 g×5 min) and the supernatant was collected for analysis of hemolysis. The RBCs were analyzed for complement fixation (cells were incubated for 10 min with a
FITC-labelled anti-C3c antibody). RBCs were resuspended with PBS (1 mL) for flow cytometry measurements. […] Post analysis processing was carried out in FlowJo (BD). The supernatant was analyzed on a variable wavelength detection plate reader, Synergy HTX, for the absorbance at 540 nm. RBCs, which were lysed via osmotic stress, were run in parallel as positive controls. The background absorbance at 540 nm from PBS containing no cells was subtracted and the difference in absorbance between cells coated with PEG-phospholipid or PBS was then calculated.

[2] = pig, in vivo
Experimental: Before surgery for both long term survival studies (SM and CLSM), samples were collected in EDTA tubes from both donors and recipients for analyses of total and differential white blood cell counts and hematology (EPK, Hb, EVF, MCV, MCHC, reticulocytes, thrombocytes). Plasma samples were analyzed for aspartate amino transferase (ASAT), alanine aminotransferase (ALAT), γ-glutamyltransferase (GT), glutamate dehydrogenase (GLDH), and creatinine at the Section of Clinical Chemistry, SLU, Uppsala.
Clinical appearance was assessed several times each day after surgery and a thorough clinical examination conducted once daily. The urinary bladders were examined every day at 9 am and […] to determine if the transplanted kidney produced urine. When possible, free-flow urine was collected and evaluated macroscopically, and density, pH, blood and protein were measured.
Each kidney was examined once after transplantation by ultrasound (Logiq e R6, GE Healthcare, Wauwatosa, U.S.A.) using linear (10 MHZ) and curvilinear (4 MHZ) probes. The length and echogenicity of the kidney as well as the corticomedullary definition were estimated. Furthermore, it was assessed whether the renal pelvic region was dilated. The blood flow in the kidney was evaluated using color Doppler. […]

Concanavalin A = details: HUVEC, 0.5 mg/ml, without plasma exposure
Experimental: HUVEC cells were cultured with endothelial cell culture medium with supplements (Promocell) in cell culture flasks (Thermofisher Scientific) and Petri dishes (NUNC). The cells were detached using trypsin EDTA buffer for flowcytometry analysis (BD accuri C6 Serial no. 5173). The cells were rinsed with PBS (10 mL) by centrifugation (120×g, 4° C., 3 min) once and fresh medium was added to the detached cells.
In addition, HUVEC cells were incubated with PEG-phospholipid (0.5 mg/ml), with 10 mM free PEG (5 kDa), or PBS (control) at RT for 45 min followed by washing with PBS, and incubation in human serum with EDTA-plasma as control, both diluted 1:50 in PBS, for 30 min at 37° C. After washing, lectin pathway recognition molecules collectin-11 (CL-11), and mannan binding lectin (MBL), were detected using the FITC-labelled and isotype control antibodies as given in Table 1. […] In addition, FITC-labelled concavalin A (a lectin of broad specificity) was incubated with coated and native HUVECs (without prior exposure to plasma) at a concentration of 50 g/ml.
After incubation with detecting antibodies, the cells were washed with PBS. All samples were analyzed on an Accuri C6 flow cytometer, unstained cells were used to gate the endothelial cell population. 10,000 events were recorded and additional controls in the form of isotype control and unstained control were ran in parallel. […]

[3] = 60 min following transplantation
[4] = 4 days following transplantation
[5] = kidney vein, 5 min, in most cases
[6] = up to 4 days post-transplantation

For “N-(methylpolyoxyethylene oxycarbonyl)-1,2-dipalmitoyl-sn-glycero-3-phosphoethanolamine [PEG-phospholipid]”, the “binding of C3b in renal biopsies” value ([1]; 5 min and necropsy day 4) was “lower binding”, the IFNγ level [1, 3] was “not any significant difference” and the IL-1α level [1, 3] was “not any significant difference”. The IL-1β level [1, 3] was “not any significant difference”, the IL-2 level [1, 3] was “not any significant difference” and the IL-4 level [1, 3] was “not any significant difference”. The IL-6 level [1, 3] was “not any significant difference”, the IL-10 level [1, 3] was “not any significant difference” and the IL-12 level [1, 3] was “not any significant difference”. The IL-18 level [1, 3] was “not any significant difference”, the IFNγ level [1, 4] was “significantly lower levels” and the IL-1α level [1, 4] was “significantly lower levels”. For the same substance, the IL-1β level [1, 4] was “significantly lower levels”, the IL-2 level [1, 4] was “significantly lower levels” and the IL-4 level [1, 4] was “significantly lower levels”. For the same substance, the IL-6 level [1, 4] was “significantly lower levels”, the IL-10 level [1, 4] was “significantly lower levels” and the IL-12 level [1, 4] was “significantly lower levels”. For the same substance, the IL-18 level [1, 4] was “significantly lower levels”, the IL-1RA protein level ([1]; after 96 hours) was “unaffected” and the IL-8 protein level ([1]; after 96 hours) was “unaffected”. For the same substance, the IL-1a protein level [1, 5] was “suppressed”, the IL-12 protein level [1, 5] was “suppressed” and the creatinine levels post-transplantation ([1]; recipients' blood, 24-96 hours, vs control grafts) was “significantly lower”. The “C3a in blood samples” value [1, 6] was “substantially lower”, the “TAT in blood samples” value [1, 6] was “substantially lower” and the “sC5b-9 in blood samples” value [1, 6] was “substantially lower”. The “cell lysis caused by the PEG-phospholipid molecules” value (red blood cells) was “did not cause any cell lysis”, the “toxicity or safety concerns regarding clinical, laboratory, or pathology parameters” value [2] was “No toxicity or safety concerns” and the “binding of Concanavalin A” value (Concanavalin A) was “substantially reduced”.
